Measured values as given in patent US20050112573A1, “Method of detecting toxic substance” (priority 2001, published 2005).

System: yeast genes (level of expressed mRNA)
Experiment: DNA chip analysis of expressed mRNA of yeast genes after 2 h culture with a toxic chemical substance
Assay type: cell-based, Saccharomyces cerevisiae S288C
Protocol: Yeast (Saccharomyces cerevtisiae S288C (α SUC2mal mel gap2 CUP1)) were cultured at 25° C. on YPD medium (yeast extract 1%, polypepton 2%, glucose 2%). One of toxic chemical substances was added to the cell at logarithmic growth phase, and the cell was further cultured for two hours. Cell was cultured without any chemical substance in the same condition, and was used as control. Concentrations of the chemical substances were defined to inhibit the growth of the yeast but not lead to death.
After the completion of cultivation, the culture was centrifuged to collect the cells. To the cells, sodium acetate buffer (50 mM sodium acetate, 10 mM EDTA, 1% SDS) was added, and the mixture was shaken at 65° C. for five minutes, followed by returning to room temperature, and obtaining the supernatant, which procedure was repeated two times. To the supernatant, ½ amount of a solution of phenol/chloroform was added, and the mixture was centrifuged to give a supernatant, which was added with an equal amount of chloroform, and the mixture was centrifuged to give a supernatant. To the supernatant, an equal amount of isopropanol containing 0.3 M sodium acetate was added, and the mixture was allowed to stand at room temperature for 30 minutes, after which the mixture was centrifuged to give a sediment of the whole RNAs. Seventy % ethanol was added to the sediment, and the mixture was again centrifuged to give a sediment, which was then dried and dissolved in water. mRNA was isolated from the whole RNAs as followings. In view of the fact that a poly A chain is attached to the 3′ terminus of mRNA, a polynucleotide having a poly T structure which was immobilized on the surface of latex beads was used to trap the mRNA, and then the mRNA was washed and eluted with spine column (Oligotex-dT30<Super>mRNA Purification Kit, Takara). Reverse transcription of the mRNA was conducted with a reverse transcriptase (Super Script II Reverse Transcriptase; catalogue No. 18064-014, GibcoBRL) using fluorescence-labeled nucleotides to give cDNAs that were introduced with Cy3-dUTP or Cy5-dUTP during the reverse transcription.
The labeled cDNAs were dissolved in TE buffer (10 mM Tris-HCl/1 mM EDTA, pH8.0), and the solution was dropped on the DNA chip containing the whole genes of yeast (DNA Chip Research Inc. Japan) so that the cDNAs were hybridized on the DNA chip at 65° C. for over 12 hours. The fluoresces intensity of the DNA chip was read with a scanner, and the ratio relative to the fluorescence intensity resulting from the absence of chemical substance was estimated as the following, which is shown in Tables 1 to 9: [formula]
In the Tables, “Intensity” indicated in the rightmost column is a value of the level of expressed mRNA of each gene in control cells as divided by the average level of the expressions of the whole genes.

Substance: HgCl2 [(3)]
- The level of expressed mRNA in the presence of chemical substance/ (yeast gene YFL010C, ratio to control without chemical substance, 2 h culture): 1.3
- The level of expressed mRNA in the presence of chemical substance/ (yeast gene YFL024C, ratio to control without chemical substance, 2 h culture): 1.1
- The level of expressed mRNA in the presence of chemical substance/The level of expressed mRNA in the absence of chemical substance (yeast gene YFL028C): 0.7
- The level of expressed mRNA in the presence of chemical substance/ (yeast gene YFL032W, ratio to control without chemical substance, 2 h culture): 1.6
- The level of expressed mRNA in the presence of chemical substance/The level of expressed mRNA in the absence of chemical substance (yeast gene YFL043C): 0.6
- The level of expressed mRNA in the presence of chemical substance/in the absence of chemical substance (yeast gene YGL035C): 4.3
- The level of expressed mRNA in the presence of chemical substance/ (yeast gene YGL037C, ratio to control without chemical substance, 2 h culture): 6.5
- The level of expressed mRNA in the presence of chemical substance/ (yeast gene YGL047W, ratio to control without chemical substance, 2 h culture): 1.6
- The level of expressed mRNA in the presence of chemical substance/ (yeast gene YGL053W, ratio to control without chemical substance, 2 h culture): 1.2
- The level of expressed mRNA in the presence of chemical substance/ (yeast gene YGL121C, ratio to control without chemical substance, 2 h culture): 1.4
- The level of expressed mRNA in the presence of chemical substance/The level of expressed mRNA in the absence of chemical substance (yeast gene YGL158W): 1.9
- The level of expressed mRNA in the presence of chemical substance/ (yeast gene YGL199C, ratio to control without chemical substance, 2 h culture): 1.7
- The level of expressed mRNA in the presence of chemical substance/The level of expressed mRNA in the absence of chemical substance (yeast gene YGL229C): 0.9
- The level of expressed mRNA in the presence of chemical substance/ (yeast gene YGR101W, ratio to control without chemical substance, 2 h culture): 1.2
- The level of expressed mRNA in the presence of chemical substance/ (yeast gene YGR110W, ratio to control without chemical substance, 2 h culture): 2.2
- The level of expressed mRNA in the presence of chemical substance/ (yeast gene YGR130C, ratio to control without chemical substance, 2 h culture): 0.6
- The level of expressed mRNA in the presence of chemical substance/The level of expressed mRNA in the absence of chemical substance (yeast gene YGR136W): 1.3
- The level of expressed mRNA in the presence of chemical substance/ (yeast gene YGR154C, ratio to control without chemical substance, 2 h culture): 2.2
- The level of expressed mRNA in the presence of chemical substance/The level of expressed mRNA in the absence of chemical substance (yeast gene YGR189C): 1.5
- The level of expressed mRNA in the presence of chemical substance/The level of expressed mRNA in the absence of chemical substance (yeast gene YGR213C): 1.0
- The level of expressed mRNA in the presence of chemical substance/ (yeast gene YGR221C, ratio to control without chemical substance, 2 h culture): 0.9
- The level of expressed mRNA in the presence of chemical substance/The level of expressed mRNA in the absence of chemical substance (yeast gene YGR257C): 0.9
- The level of expressed mRNA in the presence of chemical substance/in the absence of chemical substance (yeast gene YGR287C): 1.3
- The level of expressed mRNA in the presence of chemical substance/The level of expressed mRNA in the absence of chemical substance (yeast gene YHR004C): 0.8
- The level of expressed mRNA in the presence of chemical substance/The level of expressed mRNA in the absence of chemical substance (yeast gene YHR071W): 0.6
- The level of expressed mRNA in the presence of chemical substance/ (yeast gene YHR138C, ratio to control without chemical substance, 2 h culture): 2.2
- The level of expressed mRNA in the presence of chemical substance/The level of expressed mRNA in the absence of chemical substance (yeast gene YHR139C): 6.8
- The level of expressed mRNA in the presence of chemical substance/The level of expressed mRNA in the absence of chemical substance (yeast gene YHR142W): 2.1
- The level of expressed mRNA in the presence of chemical substance/ (yeast gene YHR199C, ratio to control without chemical substance, 2 h culture): 3.2
- The level of expressed mRNA in the presence of chemical substance/ (yeast gene YIL023C, ratio to control without chemical): 2.1
- The level of expressed mRNA in the presence of chemical substance/ (yeast gene YIL041W, ratio to control without chemical substance, 2 h culture): 2.1
- The level of expressed mRNA in the presence of chemical substance/ (yeast gene YIL087C, ratio to control without chemical substance, 2 h culture): 3.4
- The level of expressed mRNA in the presence of chemical substance/The level of expressed mRNA in the absence of chemical substance (yeast gene YIL123W): 1.2
- The level of expressed mRNA in the presence of chemical substance/The level of expressed mRNA in the absence of chemical substance (yeast gene YIL140W): 1.5
- The level of expressed mRNA in the presence of chemical substance/ (yeast gene YJL057C, ratio to control without chemical substance, 2 h culture): 1.6
- The level of expressed mRNA in the presence of chemical substance/ (yeast gene YJL066C, ratio to control without chemical substance, 2 h culture): 1.2
- The level of expressed mRNA in the presence of chemical substance/in the absence of chemical substance (yeast gene YJL070C): 1.1
- The level of expressed mRNA in the presence of chemical substance/The level of expressed mRNA in the absence of chemical substance (yeast gene YJL073W): 2.5
- The level of expressed mRNA in the presence of chemical substance/ (yeast gene YJL082W, ratio to control without chemical substance, 2 h culture): 2.4
- The level of expressed mRNA in the presence of chemical substance/The level of expressed mRNA in the absence of chemical substance (yeast gene YJL089W): 1.0
- The level of expressed mRNA in the presence of chemical substance/The level of expressed mRNA in the absence of chemical substance (yeast gene YJL116C): 1.3
- The level of expressed mRNA in the presence of chemical substance/ (yeast gene YJL151C, ratio to control without chemical substance, 2 h culture): 3.2
- The level of expressed mRNA in the presence of chemical substance/ (yeast gene YJL152W, ratio to control without chemical substance, 2 h culture): 1.8
- The level of expressed mRNA in the presence of chemical substance/ (yeast gene YJL161W, ratio to control without chemical substance, 2 h culture): 1.5
- The level of expressed mRNA in the presence of chemical substance/in the absence of chemical substance (yeast gene YJL167W): 1.4
- The level of expressed mRNA in the presence of chemical substance/ (yeast gene YJL171C, ratio to control without chemical substance, 2 h culture): 2.8
- The level of expressed mRNA in the presence of chemical substance/in the absence of chemical substance (yeast gene YJL216C): 2.2
- The level of expressed mRNA in the presence of chemical substance/The level of expressed mRNA in the absence of chemical substance (yeast gene YJR004C): 3.4
- The level of expressed mRNA in the presence of chemical substance/ (yeast gene YJR008W, ratio to control without chemical substance, 2 h culture): 1.2
- The level of expressed mRNA in the presence of chemical substance/ (yeast gene YJR054W, ratio to control without chemical): 0.3
- The level of expressed mRNA in the presence of chemical substance/The level of expressed mRNA in the absence of chemical substance (yeast gene YJR086W): 0.8
- The level of expressed mRNA in the presence of chemical substance/The level of expressed mRNA in the absence of chemical substance (yeast gene YKL008C): 2.0
- The level of expressed mRNA in the presence of chemical substance/The level of expressed mRNA in the absence of chemical substance (yeast gene YKL013C): 1.4
- The level of expressed mRNA in the presence of chemical substance/The level of expressed mRNA in the absence of chemical substance (yeast gene YKL039W): 2.4
- The level of expressed mRNA in the presence of chemical substance/The level of expressed mRNA in the absence of chemical substance (yeast gene YKL041W): 1.1
- The level of expressed mRNA in the presence of chemical substance/ (yeast gene YKL071W, ratio to control without chemical substance, 2 h culture): 5.4
